Series [1] concerns SH-SY5Y cells. As to the kind of experiment: MTT cell viability assay. It counts as cell-based, human. The settings on record: for Effect on cell viability: 0.25–100 μM, 24 h; for pIC50: Homo sapiens, neurotoxic concentration, SH-SY5Y. The text has this:
The MTT test is based on the observation that live cells can reduce the water-soluble yellow tetrazolium salt [3-(4,5-dimethylthiazol-2-yl)-2,5-diphenyltetrazolium bromide] into water-insoluble blue/magenta formazan crystals, by dehydrogenase of the active mitochondria. Dissolved formazan crystals can be quantified using a spectrophotometer and the values obtained are in direct correlation to the number of metabolically active cells. For this reason, this colorimetric assay is used to evaluate cell viability.
The MTT assay was performed as reported in literature ([Corasaniti et al., 2007]). […].
The optical density was measured at wavelengths of 540 and 690 nm using a spectrophotometer (X MARK Spectrophotometer Microplate Bio-Rad).
For orientation: Formazan colour is commonly taken as a measure of viable cells.

Series [2] relates to SH-SY5Y cells. Description: ROS measurement (H2DCF-DA, flow cytometry) after H2O2 insult. It counts as cell-based, human. The conditions noted are these: for ROS measurement 250 nM / ROS measurement 500 nM / ROS measurement 1 μM / ROS measurement 10 μM: fluorescence relative to control = 1, H2O2 (100 μM) alone 6.31, 24 h + 3 h; for ROS measurement 250 nM: hybrid 250 nM; for ROS measurement 500 nM: hybrid 500 nM; for ROS measurement 1 μM: hybrid 1 μM; for ROS measurement 10 μM: hybrid 10 μM. The procedure: H2DCF-DA is a molecule that easily diffuses into cells and, through intracellular esterases, is split into H2DCF following the loss of the acetate group. H2DCF remains trapped within cells and is oxidized by intracellular ROS to form the highly fluorescent DCF compound. Spectrofluorimetric quantification of the DCF probe, provides the content of the ROS in the cell.
[…]. Subsequently, the growth medium was replaced with a fresh phenol red-free medium containing H2DCF-DA (25 μM). After 30 min at 37°C, the cells were washed twice to remove the extracellular H2DCF-DA, centrifuged, re-suspended in PBS, exposed to H2O2 (100 μM, 30 min) and the fluorescence was evaluated by flow cytometric analysis using a FACS Accury laser flow cytometer (Becton Dickinson). The results were expressed by setting the control equal to 1 and reporting all other values. H2O2 alone was used as a positive control.
In general terms: Flow cytometry measures light scatter and fluorescence of single cells or particles in a stream.

Series [3] has as its system SH-SY5Y cells. As to the kind of experiment: MTT cell viability after H2O2 damage (neuroprotection). It counts as cell-based, human. The conditions noted are these: hybrids 21 h, then H2O2 100 μM 3 h; vs hydrogen peroxide alone.
The nature of series [4]: Cupric ion reducing antioxidant capacity (CUPRAC). The conditions noted are these: for TEAC: Supplementary Table 1, ε of compound divided by ε of Trolox; for CUPRAC: Trolox equivalent, 2% M-β-CD, A450 after 40 min. As to the method: The CUPRAC test was performed as reported by [Ozyürek et al. (2008)] on the new compounds in the unacetylated form.
CuCl2 solution 10 mM, was prepared by dissolving […] CuCl2 in water, and diluting to 250 ml. Neocuproine (Nc) solution 7.5 mM, was prepared by dissolving 15 mg of neocuproine in 10 ml of absolute EtOH. Ammonium acetate 1.0 M was prepared by dissolving 19.27 g of NH4Ac in 250 ml of water. The cyclodextrin (2% M-β-CD) stock solution was prepared in water-acetone (9:1 v/v). The standard solution of Trolox 1 mM was prepared in 2% M-β-CD. All working solutions of antioxidant 1 mM were freshly prepared in 2% M-β-CD.
1 ml of Cu(II) + 1 ml of Nc + 1 ml of NH4Ac buffer + x mL of antioxidant solution + (1.1 − x) 2% M-β-CD in 1:9 water–acetone mixture (v/v); total volume = 4.1 ml, measure A 450 against a reagent blank after 40 min of reagent addition at room temperature.
The Trolox equivalent antioxidant capacity (TEAC) is defined as the millimolar concentration of a Trolox solution having the antioxidant capacity equivalent to a 1.0 mM solution of the substance under investigation. The […] values were simply calculated by dividing the molar absorptivity ε of the species under investigation by that of Trolox under corresponding conditions. The concentration linearity ranges for all the antioxidants tested are reported in the Supplementary Material (See Supplementary Table S1).

Series [5] can be described thus: Oxygen radical absorbance capacity (ORAC) by fluorescence. The settings on record: for ORAC: means ± SEM of three independent observations, sample 10 μM in 7% RMCD solution. The procedure:
The measurement temperature was set at 37°C. A regression equation was built by comparing the net area under the FL decay curve and the Trolox concentration according to the following equation: Y(µM Trolox)=a+bX(AUC−n) and the final ORACFL values were expressed as Trolox equivalents (μmol g^−1).

A short description of series [6]: Metal-chelating properties by UV-vis spectroscopy. The settings on record: compound 75 μM with CuSO4, FeSO4, FeCl3 or ZnCl2 150 μM in MeOH, 30 min. As to the method:
The complexing studies for all the unprotected hybrids were carried out through a UV–vis spectroscopy assay with the wavelength ranging from 200 to 400 nm. The unprotected hybrids were dissolved in a 5% DMSO methanolic solution (3 mM). This solution was diluted with methanol to 150 µM. 2 ml of the 150 µM solution were mixed with 2 ml of methanol to record the spectra of the hybrids alone, or with 2 ml of the salts solution (300 µM). Then, the absorption spectra of the antioxidants (75 μM) alone or in the presence of CuSO4, FeSO4, FeCl3 or ZnCl2 (150 μM) mixed for 30 min in methanol at room temperature were recorded in a 1 cm quartz cell.

This note sets out measurements from publication PMC8560896 (Frontiers in Chemistry, 2021).

pIC50: −log10 of the molar value. Entries after “also recorded” stand apart in the source; their conditions may differ. Some results are limits rather than exact numbers.

In the case of `CC(=O)Oc1ccc(CCOC(=O)C2CCN(Cc3ccccc3)CC2)cc1` [HT4a], in the series on SH-SY5Y cells [1], the “Effect on cell viability” value was “reduction in cell viability was found for compounds HT3a and HT4a at concentrations higher than 10 μM”; the pIC50 was < 5.00. In addition, in the series on SH-SY5Y cells [2], the “ROS measurement 250 nM” value worked out at 2.34, the “ROS measurement 500 nM” value was 2.77, the “ROS measurement 1 μM” value came to 2.94 and the “ROS measurement 10 μM” value was found to be 3.01. In the series with SH-SY5Y cells [3], the “Protective effect on cell viability against H2O2 damage” value (shortened to “Protective effect on cell viability”) was “statistically significant increase in cell viability”.

As to `OCCc1ccc(O)c(O)c1` [HT, hydroxytyrosol, reference compound], in series [4], the TEAC is on record as 2,82 and the CUPRAC is recorded as 2.82 (mmol of trolox)/(mmol of tested compound). For the same compound, the ORAC in series [5] stood at 38.8 ± 4.4 µmol trolox l^−1.

For `CC(=O)Oc1ccc(CCOC(=O)C2CCN(Cc3ccccc3)CC2)cc1OC(C)=O` [HT1a], the pIC50 in the series with SH-SY5Y cells [1] was < 4.30. Further, in the series on SH-SY5Y cells [2], the “ROS measurement 250 nM” value is 2.99, the “ROS measurement 500 nM” value is 2.63, the “ROS measurement 1 μM” value is 2.51 and the “ROS measurement 10 μM” value is on record as 2.66.

`COc1cc(CCOC(=O)C2CCN(Cc3ccccc3)CC2)ccc1OC(C)=O` [HT3a]: in the series on SH-SY5Y cells [1], the “Effect on cell viability” value was “reduction in cell viability was found for compounds HT3a and HT4a at concentrations higher than 10 μM”; the pIC50 is < 5.00. Besides, in the series with SH-SY5Y cells [2], the “ROS measurement 250 nM” value is on record as 2.27, the “ROS measurement 500 nM” value is given as 1.94, the “ROS measurement 1 μM” value is reported as 1.58 and the “ROS measurement 10 μM” value worked out at 2.13. The “Protective effect on cell viability” value in the series with SH-SY5Y cells [3] was “statistically significant increase in cell viability; also recorded: able to attenuate cell injury against oxidative stress”.

`COc1cc(CCOC(=O)C2CCN(Cc3ccccc3)CC2)ccc1O` [HT3]: in series [4], the TEAC is listed as 1,80 and the CUPRAC was 1.80 (mmol of trolox)/(mmol of tested compound). Moreover, in the series with SH-SY5Y cells [1], the negative logarithm of the IC50 (pIC50) was < 4.60. Further, in the series on SH-SY5Y cells [2], the “ROS measurement 250 nM” value is recorded as 3.68, the “ROS measurement 500 nM” value worked out at 2.91, the “ROS measurement 1 μM” value is 2.18 and the “ROS measurement 10 μM” value is 2.76. Also, the ORAC in series [5] was 45.2 ± 3.6 µmol trolox l^−1.

Take `O=C(OCCc1ccc(O)c(O)c1)C1CCN(Cc2ccccc2)CC1` [HT1]: in series [4], the TEAC is 3,36 and the CUPRAC is listed as 3.36 (mmol of trolox)/(mmol of tested compound). In the series with SH-SY5Y cells [1], this compound gave a pIC50 of 4.30. Also, in the series on SH-SY5Y cells [2], the “ROS measurement 250 nM” value is 6.18, the “ROS measurement 500 nM” value stood at 5.25, the “ROS measurement 1 μM” value was found to be 5.47 and the “ROS measurement 10 μM” value came out at 5.49. Besides, the Metal chelating activity result in series [6] is listed as “able to chelate only Copper (II) efficiently; also recorded: showed metal chelating properties”. For the same compound, in series [5], the ORAC is reported as 21.2 ± 1.6 µmol trolox l^−1.

On to `Cc1c(C)c2c(c(C)c1O)CCC(C)(C(=O)O)O2` (stereo not shown) [Trolox, reference compound], for which, in series [4], the TEAC came to 1 and the CUPRAC is 1 (mmol of trolox)/(mmol of tested compound).

For the compound `O=C(OCCc1cc(O)c(O)cc1[N+](=O)[O-])C1CCN(Cc2ccccc2)CC1` [HT2], in series [4], the TEAC is 2,77 and the CUPRAC is 2.77 (mmol of trolox)/(mmol of tested compound). For the same compound, the pIC50 in the series with SH-SY5Y cells [1] is < 4.30. For the same compound, in the series on SH-SY5Y cells [2] (H2O2 100 μM as toxic insult), the “Reduction of ROS amount (in words)” value is “the more effective one to reduce the ROS amount to the physiological values”. Further, in the series with SH-SY5Y cells [2], the “ROS measurement 250 nM” value was found to be 2.21, the “ROS measurement 500 nM” value was found to be 1.97, the “ROS measurement 1 μM” value stood at 1.12 and the “ROS measurement 10 μM” value is on record as 1.38. Further, the Metal chelating activity entry in series [6] is “chelates all the metal cations; also recorded: showed metal chelating properties”. Further, in series [5], the “Reduction of ORAC antioxidant capacity compared to HT1” value was ~3 times and the ORAC came out at 7.6 ± 0.2 µmol trolox l^−1. Moreover, in the series with SH-SY5Y cells [3], the “Protective effect on cell viability” value is “statistically significant increase in cell viability; also recorded: able to attenuate cell injury against oxidative stress”.

As for `O=C(OCCc1ccc(O)cc1)C1CCN(Cc2ccccc2)CC1` [HT4], in series [4], the TEAC is recorded as 0,99 and the CUPRAC is given as 0.99 (mmol of trolox)/(mmol of tested compound). The negative logarithm of the IC50 (pIC50) with SH-SY5Y cells [1] was < 4.60. Besides, in the series on SH-SY5Y cells [2], the “ROS measurement 250 nM” value was determined as 3.9, the “ROS measurement 500 nM” value was 3.2, the “ROS measurement 1 μM” value worked out at 3.64 and the “ROS measurement 10 μM” value is on record as 3.67. The same compound gave an ORAC in series [5] of 23.0 ± 2.0 µmol trolox l^−1.

By pIC50 is commonly meant −log10 of the IC50, conventionally taken in molar units. Low values mean a large IC50, high ones a small IC50.
